Entries after “also recorded” stand apart in the source; their conditions may differ. One block for each molecule: values may come before it.
Legend:
[1] = tested on: CNS receptors and ion channels (44 off-target sites); assay: PDSP broad screen of binding at off-target sites; conditions: binding screen at 10 μM / Ki follow-up
[2] = tested on: CACO-2 cell monolayer / P-glycoprotein; assay: Bidirectional permeability in CACO-2 cell monolayer; conditions: CACO-2 monolayer; for P-glycoprotein substrate: bidirectional permeability
[3] = tested on: chronic constriction injury (CCI) of the sciatic nerve, mechano-allodynia; assay: CCI model of neuropathic pain in mice, oral dosing, paw withdrawal threshold; format: in vivo, mouse; conditions: for in vivo duration of action: po, CCI model in mice
mA3AR = biological target: T1, mA3AR (Mus musculus, UniProt Q61618); format: cell-based
T1 sequence (Q61618 1-319): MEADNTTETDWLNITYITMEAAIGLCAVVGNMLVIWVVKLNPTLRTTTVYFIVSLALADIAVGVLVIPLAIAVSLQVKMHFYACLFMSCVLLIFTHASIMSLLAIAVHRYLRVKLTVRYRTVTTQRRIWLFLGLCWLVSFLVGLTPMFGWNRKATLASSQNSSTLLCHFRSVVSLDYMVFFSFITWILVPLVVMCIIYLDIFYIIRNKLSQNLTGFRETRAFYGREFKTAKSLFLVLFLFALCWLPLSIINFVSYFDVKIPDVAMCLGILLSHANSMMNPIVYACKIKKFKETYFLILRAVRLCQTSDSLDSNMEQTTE

[4] = Stability in rat liver microsomes
Plasma protein binding [5] = assay: Plasma protein binding
[6] = Chemical stability in simulated gastric fluid; conditions: pH 1.6, 37 °C
hA3AR = biological target: T2, hA3AR (Homo sapiens, UniProt P0DMS8); assay: Radioligand binding at hA3AR, CHO cell membranes, [125I]I-AB-MECA; conditions: read-out: hA3AR Ki, n = 3–4
T2 sequence (P0DMS8 1-318): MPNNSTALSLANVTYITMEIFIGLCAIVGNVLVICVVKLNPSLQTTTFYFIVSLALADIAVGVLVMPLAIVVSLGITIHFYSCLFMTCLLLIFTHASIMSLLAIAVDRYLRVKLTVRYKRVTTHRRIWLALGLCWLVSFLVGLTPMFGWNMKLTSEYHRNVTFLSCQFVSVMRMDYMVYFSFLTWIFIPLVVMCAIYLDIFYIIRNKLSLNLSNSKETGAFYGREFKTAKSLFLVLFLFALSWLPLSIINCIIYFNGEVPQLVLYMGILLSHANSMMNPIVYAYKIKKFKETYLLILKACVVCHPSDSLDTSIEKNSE

Plasma protein binding [7] = assay: Plasma protein binding; remark: listed apart in the source
[8] = Stability in human liver microsomes
Plasma protein binding [9] = assay: Plasma protein binding; remark: listed apart in the source
[10] = Chemical stability in simulated intestinal fluid; conditions: pH 6.5, 37 °C
[11] = Stability in mouse liver microsomes

apical to basal permeability [2]: moderate
P-glycoprotein substrate [2]: not to be substrates for P-glycoprotein
Structure (SMILES): CNC(=O)[C@@]12C[C@@H]1[C@@H](n1cnc3c(NC)nc(C#Cc4ccco4)nc31)[C@H](O)[C@@H]2O [Compound 27, (1S,2R,3S,4R,5S)-4-(2-(Furan-2-ylethynyl)-6-(methylamino)-9H-purin-9-yl)-2,3-dihydroxy-N-methylbicyclo[3.1.0]hexane-1-carboxamide]
in vivo duration of action [3]: ~3 h
off-target interactions in PDSP screen [1]: relatively free of off-target receptor effects; also recorded: completely lacks off-target interactions at 10 μM

IC50 (mA3AR): 60.1 nM
Structure (SMILES): CNC(=O)[C@@]12C[C@@H]1[C@@H](n1cnc3c(NC)nc(C#Cc4cccs4)nc31)[C@H](O)[C@@H]2O [Compound 32, (1S,2R,3S,4R,5S)-2,3-Dihydroxy-N-methyl-4-(6-(methylamino)-2-(thiophen-2-ylethynyl)-9H-purin-9-yl)bicyclo[3.1.0]hexane-1-carboxamide]
off-target interactions in PDSP screen [1]: inhibited binding by >30% at only a few sites

apical to basal permeability [2]: moderate
P-glycoprotein substrate [2]: not to be substrates for P-glycoprotein
Structure (SMILES): CNC(=O)[C@@]12C[C@@H]1[C@@H](n1cnc3c(NC)nc(C#Cc4ccc(Cl)s4)nc31)[C@H](O)[C@@H]2O [Compound 33, (1S,2R,3S,4R,5S)-4-(2-((5-Chlorothiophen-2-yl)ethynyl)-6-(methylamino)-9H-purin-9-yl)-2,3-dihydroxy-N-methylbicyclo[3.1.0]hexane-1-carboxamide]
reversal of neuropathic pain at intermediate dose ([3]; […] po, Figure 1 dose–response): approximately 80%
in vivo duration of action [3]: > 3 h
off-target interactions in PDSP screen [1]: largely free of off-target receptor effects, except at TSPO and σ1 and σ2 receptors

stability in liver microsomes t1/2, rat [4]: 6.64 min
% unbound in plasma, rat (Plasma protein binding [5]): 6.32%
stability in simulated fluids, gastric, t1/2 [6]: 46.5 min
Ki (hA3AR): 2.7 nM
% unbound in plasma, human (Plasma protein binding [7]): 7.00%
stability in liver microsomes t1/2, human [8]: 3.66 min
% unbound in plasma, mouse (Plasma protein binding [9]): 4.85%
stability in simulated fluids, intestinal, t1/2 [10]: 174 min
agonist efficacy at the mA3AR (mA3AR; cyclic AMP assay, HEK293-mA3AR): full agonists
stability in liver microsomes t1/2, mouse [11]: 1.98 min
Structure (SMILES): CNC(=O)[C@@]12C[C@@H]1[C@@H](n1cnc3c(NC)nc(C#C[c-]4cccc4)nc31)[C@H](O)[C@@H]2O.[Fe+2].c1cc[cH-]c1 [Compound 36, (1S,2R,3S,4R,5S)-4-(2-((Ferrocen-yl)ethynyl)-6-(methylamino)-9H-purin-9-yl)-2,3-dihydroxy-N-methylbicyclo[3.1.0]hexane-1-carboxamide]
max effect Emax (% ± SEM), % of complete reversal at peak protection ([3]; 3 μmol/kg po on day 7 after CCI, mice, ipsilateral hind paw): 94.3 ± 5.7%
in vivo duration of action [3]: > 3 h

Further lines, the molecule ahead of its results:

Structure (SMILES): CNC(=O)[C@@]12C[C@@H]1[C@@H](n1cnc3c(NC)nc(C#Cc4ccc(F)c(F)c4)nc31)[C@H](O)[C@@H]2O [Compound 13, reference compound]
off-target interactions in PDSP screen [1]: inhibited binding by >30% at only a few sites

Structure (SMILES): CNC(=O)[C@@]12C[C@@H]1[C@@H](n1cnc3c(NC)nc(C#Cc4cnccn4)nc31)[C@H](O)[C@@H]2O [Compound 23, (1S,2R,3S,4R,5S)-2,3-Dihydroxy-N-methyl-4-(6-(methylamino)-2-(pyrazin-2-ylethynyl)-9H-purin-9-yl)bicyclo[3.1.0]hexane-1-carboxamide]
P-glycoprotein substrate [2]: not to be substrates for P-glycoprotein
off-target interactions in PDSP screen [1]: inhibited binding by >30% at only a few sites

Structure (SMILES): CNC(=O)[C@@]12C[C@@H]1[C@@H](n1cnc3c(NC)nc(C#Cc4cnn(C)c4)nc31)[C@H](O)[C@@H]2O [Compound 26, (1S,2R,3S,4R,5S)-2,3-Dihydroxy-N-methyl-4-(2-((1-methyl-1H-pyrazol-4-yl)ethynyl)-6-(methylamino)-9H-purin-9-yl)bicyclo[3.1.0]hexane-1-carboxamide]
off-target interactions in PDSP screen [1]: relatively free of off-target receptor effects

Source: PMC4266358 (Journal of Medicinal Chemistry, 2014)
